Experimental data: ChEMBL document CHEMBL1148545, “New metabolically stable fatty acid amide ligands of cannabinoid receptors: Synthesis and receptor affinity studies” (Bioorg Med Chem Lett, 2006)

Legend:
Cannabinoid receptor 1 [1] = target: T1, Cannabinoid receptor 1 (Homo sapiens, UniProt P21554); experiment: Displacement of [3H]CP-55940 from human recombinant CB1 receptor
Cannabinoid receptor 2 = Cannabinoid receptor 2 (Homo sapiens, UniProt P34972); experiment: Displacement of [3H]CP-55940 from human recombinant CB2 receptor
Cannabinoid receptor 2, sequence (P34972 whole entry): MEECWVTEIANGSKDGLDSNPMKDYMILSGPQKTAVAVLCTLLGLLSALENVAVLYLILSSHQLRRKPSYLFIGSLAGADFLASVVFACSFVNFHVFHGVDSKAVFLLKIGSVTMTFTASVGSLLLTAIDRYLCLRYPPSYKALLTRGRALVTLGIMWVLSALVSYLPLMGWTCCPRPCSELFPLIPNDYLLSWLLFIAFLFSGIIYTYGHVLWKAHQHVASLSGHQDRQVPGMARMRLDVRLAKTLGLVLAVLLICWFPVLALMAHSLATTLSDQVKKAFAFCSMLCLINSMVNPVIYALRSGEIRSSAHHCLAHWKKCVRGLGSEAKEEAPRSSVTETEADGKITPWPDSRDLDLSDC

Cannabinoid receptor 1 [2] = target: T1, Cannabinoid receptor 1; experiment: Displacement of [3H]CP-55940 from human recombinant CB1 receptor in presence of hydrolase inhibitor PMSF
[3] = target: T2, Fatty-acid amide hydrolase 1 (Rattus norvegicus, UniProt P97612); experiment: Inhibitory activity against rat brain FAAH by [14C]anandamide hydrolysis
T2 sequence (P97612 whole entry): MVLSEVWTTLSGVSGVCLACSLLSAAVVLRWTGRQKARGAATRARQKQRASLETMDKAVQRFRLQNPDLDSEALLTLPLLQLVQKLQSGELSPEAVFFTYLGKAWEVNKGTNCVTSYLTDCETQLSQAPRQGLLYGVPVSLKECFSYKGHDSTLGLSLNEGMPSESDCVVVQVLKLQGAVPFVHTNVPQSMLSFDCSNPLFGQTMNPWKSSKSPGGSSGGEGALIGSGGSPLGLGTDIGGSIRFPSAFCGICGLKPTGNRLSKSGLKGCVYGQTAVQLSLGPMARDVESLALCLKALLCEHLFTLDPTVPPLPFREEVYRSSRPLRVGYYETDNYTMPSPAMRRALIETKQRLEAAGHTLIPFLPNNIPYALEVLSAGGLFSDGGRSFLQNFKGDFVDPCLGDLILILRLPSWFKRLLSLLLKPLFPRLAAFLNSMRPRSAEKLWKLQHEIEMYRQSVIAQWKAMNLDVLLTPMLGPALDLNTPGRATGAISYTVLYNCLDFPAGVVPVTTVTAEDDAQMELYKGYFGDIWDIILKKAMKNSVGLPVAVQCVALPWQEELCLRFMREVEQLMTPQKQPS

T1 sequence (P21554 whole entry): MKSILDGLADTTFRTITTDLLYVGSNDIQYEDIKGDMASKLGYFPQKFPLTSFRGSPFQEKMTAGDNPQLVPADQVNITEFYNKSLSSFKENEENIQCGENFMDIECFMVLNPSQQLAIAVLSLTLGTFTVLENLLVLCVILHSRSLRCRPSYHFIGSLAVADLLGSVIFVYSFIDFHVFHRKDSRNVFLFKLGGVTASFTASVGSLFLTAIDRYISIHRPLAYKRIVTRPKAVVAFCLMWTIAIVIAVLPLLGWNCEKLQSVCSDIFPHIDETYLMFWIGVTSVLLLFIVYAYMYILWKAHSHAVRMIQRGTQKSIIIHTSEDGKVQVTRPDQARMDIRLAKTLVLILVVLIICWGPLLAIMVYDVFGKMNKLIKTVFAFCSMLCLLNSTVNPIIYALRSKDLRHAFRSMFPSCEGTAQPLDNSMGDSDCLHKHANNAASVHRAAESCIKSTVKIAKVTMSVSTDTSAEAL

SMILES | Ki (Cannabinoid receptor 1 [1]) | Ki (Cannabinoid receptor 2) | Ki (Cannabinoid receptor 1 [2]) | IC50 [3]
C=CCCCCCCCCC(=O)Nc1ccc(N2CCOCC2)cc1 | > 10000 nM | > 10 µM | – | –
CCCCCCCC/C=C\CCCCCCCC(=O)NCCc1cc(OC)cc(OC)c1 | 1300 nM | > 10 µM | 1000 nM | > 25 µM
CCCCCCCC/C=C\CCCCCCCCCCCC(=O)NCCc1cc(OC)cc(OC)c1 | 5400 nM | > 10 µM | – | –
C=CCCCCCCCCC(=O)Nc1ccc(OC)cc1 | > 10000 nM | > 10 µM | – | –
C=CCCCCCCCCC(=O)NCCc1ccc(OC)cc1 | > 10000 nM | > 10 µM | – | –
C=CCCCCCCCCC(=O)NCc1ccc(OC)cc1 | > 10000 nM | > 10 µM | – | –
CCCCCCCC/C=C/C(=O)NCCc1ccc(OC)cc1OC | > 10000 nM | > 10 µM | – | –
CCCCC/C=C\C/C=C\C/C=C\C/C=C\CCCC(=O)Nc1ccc(N2CCOCC2)cc1 | 150 nM | 4.3 µM | 150 nM | > 25 µM
C=CCCCCCCCCC(=O)NCCc1ccc(OC)cc1OC | > 10000 nM | > 10 µM | – | –
CCCCC/C=C\C/C=C\C/C=C\C/C=C\CCCC(=O)N1CCN(c2ccc(Cl)cc2)CC1 | 600 nM | > 10 µM | – | –
CCCCC/C=C\C/C=C\C/C=C\C/C=C\CCCC(=O)Nc1ccc(OC)cc1 | 500 nM | 4 µM | – | –
CCCCC/C=C\C/C=C\C/C=C\C/C=C\CCCC(=O)NCc1cc(OC)ccc1OC | 500 nM | 4.1 µM | – | –
CCCCC/C=C\C/C=C\C/C=C\C/C=C\CCCC(=O)NCCc1cc(OC)cc(OC)c1 | > 10000 nM | > 10 µM | – | –
CCCCC/C=C\C/C=C\C/C=C\C/C=C\CCCC(=O)N1CCN(c2ccc(C)c(C)c2)CC1 | 400 nM | 4.2 µM | – | –
CCCCCCCC/C=C\CCCCCCCCCCCC(=O)Nc1ccc(N2CCOCC2)cc1 | 6400 nM | > 10 µM | – | –
CCCCC/C=C\C/C=C\C/C=C\C/C=C\CCCC(=O)NCCc1ccc(OC)cc1OC | 500 nM | 4 µM | – | –
CCCCCCCC/C=C\CCCCCCCC(=O)Nc1ccc(OC)cc1 | 1600 nM | > 10 µM | 1500 nM | > 25 µM
CCCCCCCC/C=C/C(=O)Nc1ccc(N2CCOCC2)cc1 | > 10000 nM | > 10 µM | – | –

SMILES | Ki (Cannabinoid receptor 1 [1]) | Ki (Cannabinoid receptor 2) | Ki (Cannabinoid receptor 1 [2]) | IC50 [3]
CCCCCCCC/C=C\CCCCCCCC(=O)NCCc1ccc(OC)cc1OC | 800 nM | > 10 µM | 600 nM | > 25 µM
CCCCCCCC/C=C/C(=O)NCCc1cc(OC)cc(OC)c1 | 2800 nM | 5.2 µM | – | –
CCCCCCCC/C=C/C(=O)NCc1ccc(OC)cc1 | > 10000 nM | > 10 µM | – | –
CCCCCCCC/C=C\CCCCCCCC(=O)Nc1ccc(N2CCOCC2)cc1 | > 10000 nM | > 10 µM | – | –
CCCCC/C=C\C/C=C\C/C=C\C/C=C\CCCC(=O)Nc1ccc(O)cc1 | 1760 nM | – | – | –
CCCCC/C=C\C/C=C\C/C=C\C/C=C\CCCC(=O)NCCc1ccc(OC)cc1 | 2400 nM | > 10 µM | – | –
CCCCC/C=C\C/C=C\C/C=C\C/C=C\CCCC(=O)NCc1ccc(OC)cc1OC | 200 nM | 4 µM | 200 nM | > 25 µM
CCCCC/C=C\C/C=C\C/C=C\C/C=C\CCCC(=O)NCc1ccc(OC)cc1 | 600 nM | 4.5 µM | – | –
CCCCC/C=C\C/C=C\C/C=C\C/C=C\CCCC(=O)N1CCN(c2ccc(F)cc2)CC1 | 300 nM | 5.1 µM | 300 nM | > 25 µM
CCCCCCCC/C=C/C(=O)NCCc1ccc(OC)cc1 | – | 5.1 µM | – | –
CCCCCCCC/C=C\CCCCCCCCCCCC(=O)NCCc1ccc(OC)cc1 | > 10000 nM | > 10 µM | – | –
CCCCCCCC/C=C\CCCCCCCC(=O)NCc1ccc(OC)cc1 | 500 nM | > 10 µM | 600 nM | > 25 µM
CCCCCCCC/C=C\CCCCCCCC(=O)NCCc1ccc(OC)cc1 | 400 nM | > 10 µM | 300 nM | > 25 µM
CCCCCCCC/C=C\CCCCCCCCCCCC(=O)NCCc1ccc(OC)cc1OC | 3700 nM | > 10 µM | – | –
CCCCCCCC/C=C/C(=O)Nc1ccc(OC)cc1 | – | 2.5 µM | – | –
CCCCCCCC/C=C\CCCCCCCCCCCC(=O)Nc1ccc(OC)cc1 | > 10000 nM | > 10 µM | – | –
CCCCCCCC/C=C\CCCCCCCCCCCC(=O)NCc1ccc(OC)cc1 | > 10000 nM | > 10 µM | – | –
C=CCCCCCCCCC(=O)NCCc1cc(OC)cc(OC)c1 | > 10000 nM | > 10 µM | – | –
